In patent publication US11400058B2, “Intravenous formulations of coenzyme Q10 (CoQ10) and methods of use thereof” (Berg LLC, priority 2010, dated 2022):
Marks after values point to notes of the source that are not given here.

Assay: 4-week repeat-dose study in dogs with 2-week recovery (Study 20000334);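 further: endpoints monitored covered cageside and clinical observations, body weight, gross pathology, clinical pathology, histopathology and organ weights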
Details: for Died or Sacrificed Moribund: animals of 5
[1] = 31.25 mg/kg F, end of dosing, animals of 3
[2] = 31.25 mg/kg F, end of recovery, animals of 2
[3] = 31.25 mg/kg M, end of dosing, animals of 3
[4] = 31.25 mg/kg M, end of recovery, animals of 2
[5] = 62.5 mg/kg F, end of dosing, animals of 3
[6] = 62.5 mg/kg F, end of recovery, animals of 2
[7] = 62.5 mg/kg M, end of dosing, animals of 3
[8] = 62.5 mg/kg M, end of recovery, animals of 2
[9] = 125 mg/kg F, end of dosing, animals of 3
[10] = 125 mg/kg F, end of recovery, animals of 2
[11] = 125 mg/kg M, end of dosing, animals of 3
[12] = 125 mg/kg M, end of recovery, animals of 2

COC1=C(OC)C(=O)C(C/C=C(\C)CC/C=C(\C)CC/C=C(\C)CC/C=C(\C)CC/C=C(\C)CC/C=C(\C)CC/C=C(\C)CC/C=C(\C)CC/C=C(\C)CCC=C(C)C)=C(C)C1=O [CoQ10, Coenzyme Q10]
Died or Sacrificed Moribund (31.25 mg/kg F): 0
Body Weight, percent difference from controls (31.25 mg/kg F, end of dosing): +4.7%
Reticulocytes (31.25 mg/kg F, end of dosing): 3.67e+10 L⁻¹
Gross Pathology: Pale Liver [1]: 0
Liver Glycogen Accum. [1]: 2
Liver Glycogen Accum., Mild [1]: 0
Liver Glycogen Accum., Minimal [1]: 2
Body Weight, percent difference from controls (31.25 mg/kg F, end of recovery): +10.9%
Reticulocytes (31.25 mg/kg F, end of recovery): 63.4 109/L
Gross Pathology: Pale Liver [2]: 0
Liver Glycogen Accum. [2]: 0
Liver Glycogen Accum., Mild [2]: 0
Liver Glycogen Accum., Moderate [2]: 0
Died or Sacrificed Moribund (31.25 mg/kg M): 0
Body Weight, percent difference from controls (31.25 mg/kg M, end of dosing): +3.3%
Reticulocytes (31.25 mg/kg M, end of dosing): 4.87e+10 L⁻¹
Gross Pathology: Pale Liver [3]: 0
Liver Glycogen Accum. [3]: 3
Liver Glycogen Accum., Mild [3]: 1
Liver Glycogen Accum., Minimal [3]: 2
Body Weight, percent difference from controls (31.25 mg/kg M, end of recovery): +4.7%
Reticulocytes (31.25 mg/kg M, end of recovery): 71.6 109/L
Gross Pathology: Pale Liver [4]: 0
Liver Glycogen Accum. [4]: 0
Liver Glycogen Accum., Mild [4]: 0
Liver Glycogen Accum., Moderate [4]: 0
Died or Sacrificed Moribund (62.5 mg/kg F): 0
Body Weight, percent difference from controls (62.5 mg/kg F, end of dosing): +4.2%
Reticulocytes (62.5 mg/kg F, end of dosing): 5.2e+10 L⁻¹
Gross Pathology: Pale Liver [5]: 3
Liver Glycogen Accum. [5]: 3
Liver Glycogen Accum., Mild [5]: 1
Liver Glycogen Accum., Minimal [5]: 2
Body Weight, percent difference from controls (62.5 mg/kg F, end of recovery): +5.1%
Reticulocytes (62.5 mg/kg F, end of recovery): 50.8 109/L
Gross Pathology: Pale Liver [6]: 1
Liver Glycogen Accum. [6]: 1
Liver Glycogen Accum., Mild [6]: 0
Liver Glycogen Accum., Moderate [6]: 1
Died or Sacrificed Moribund (62.5 mg/kg M): 0
Body Weight, percent difference from controls (62.5 mg/kg M, end of dosing): 0.0%
Reticulocytes (62.5 mg/kg M, end of dosing): 6.8e+10 L⁻¹
Gross Pathology: Pale Liver [7]: 3
Liver Glycogen Accum. [7]: 3
Liver Glycogen Accum., Mild [7]: 3
Liver Glycogen Accum., Minimal [7]: 0
Body Weight, percent difference from controls (62.5 mg/kg M, end of recovery): −1.4%
Reticulocytes (62.5 mg/kg M, end of recovery): 85.4 109/L
Gross Pathology: Pale Liver [8]: 1
Liver Glycogen Accum. [8]: 1
Liver Glycogen Accum., Mild [8]: 1
Liver Glycogen Accum., Moderate [8]: 0
Died or Sacrificed Moribund (125 mg/kg F, moribund sacrificed on Day 36 (Week 2 of recovery)): 1^c
Body Weight, percent difference from controls (125 mg/kg F, end of dosing): −1.0%
Reticulocytes (125 mg/kg F, end of dosing): 160.69 109/L
Gross Pathology: Pale Liver [9]: 3
Liver Glycogen Accum. [9]: 3
Liver Glycogen Accum., Mild [9]: 1
Liver Glycogen Accum., Minimal [9]: 2
Body Weight, percent difference from controls (125 mg/kg F, end of recovery): −1.0%
Reticulocytes (125 mg/kg F, end of recovery): 53.6 109/L
Gross Pathology: Pale Liver [10]: 2
Liver Glycogen Accum. [10]: 2
Liver Glycogen Accum., Mild [10]: 1
Liver Glycogen Accum., Moderate [10]: 1
Died or Sacrificed Moribund (125 mg/kg M): 0
Body Weight, percent difference from controls (125 mg/kg M, end of dosing): +1.2%
Reticulocytes (125 mg/kg M, end of dosing): 190.6 109/L
Gross Pathology: Pale Liver [11]: 3
Liver Glycogen Accum. [11]: 3
Liver Glycogen Accum., Mild [11]: 3
Liver Glycogen Accum., Minimal [11]: 0
Body Weight, percent difference from controls (125 mg/kg M, end of recovery): +7.9%
Reticulocytes (125 mg/kg M, end of recovery): 131.1 109/L
Gross Pathology: Pale Liver [12]: 2
Liver Glycogen Accum. [12]: 2
Liver Glycogen Accum., Mild [12]: 1
Liver Glycogen Accum., Moderate [12]: 1
